Assay results: PMC7801053, “Diarylalkanoids as Potent Tyrosinase Inhibitors from the Stems of Semecarpus caudata” (Evidence-based Complementary and Alternative Medicine : eCAM, 2021)
pIC50, pKi: −log10 of the molar value.

Biological target: Tyrosinase (EC 1.14.18.1) from mushroom
Experiment: Tyrosinase inhibitory assay (L-DOPA substrate, absorbance at 475 nm)
Conditions: read-out: IC50 (tyrosinase inhibitory activity); mushroom tyrosinase 15 U/mL, L-DOPA 1.5 mM, phosphate buffer pH 6.8, preincubated 30 min, n = 3
Experimental: Optical values were measured on a Shimadzu UV-1800 spectrophotometer (Shimadzu Pte., Ltd., Singapore). […] Tyrosinase (EC 1.14.18.1) from mushroom (3933 U·mL^−1) and L-dihydroxyphenylalanine (L-DOPA) were obtained from Sigma-Aldrich (Sigma-Aldrich Pte., Ltd., Singapore). Other chemicals were of the highest grade available.
All pure compounds were dissolved in DMSO and tested at concentrations ranging from 0.01 to 100 μM. Assay mixtures in 0.1 M phosphate buffer pH 6.8 were prepared immediately before use, consisting of 100 μL of tyrosinase solution (15 U/mL) and 1900 μL of test solution. These mixtures were preincubated at room temperature for 30 min, followed by addition of 1000 μL of L-DOPA 1.5 mM in pH 6.8 phosphate buffer and incubated at room temperature for 7 min. The absorbances (A) at 475 nm were acquired on Shimadzu UV-1800 spectrophotometer. The inhibitory percentage (I%) was calculated according to the formula: I% = ((Acontrol − Asample)/Acontrol) × 100%. Data were represented as means ± standard error (n = 3). The IC50 values were determined by using GraphPad Prism software with multivariate nonlinear regression and R^2 > 0.9.

SMILES	pIC50
COc1cc(/C=C/C(=O)O)ccc1O [Compound 7, ferulic acid]	< 4.00
O=C(/C=C/c1ccc(O)cc1O)c1ccc(O)cc1O [Compound 8, 2,4,2′,4′-Tetrahydroxychalcone]	7.80
CC(=O)/C=C/c1ccc(O)c(O)c1 [Compound 6, trans-4-(3,4-dihydroxyphenyl)but-3-en-2-one]	4.57
O=C(O)/C=C/c1ccc(O)cc1 [Compound 4, p-coumaric acid]	5.63
O=C(/C=C/C=C/c1ccc(O)cc1O)c1ccc(O)cc1O [Compound 1, 2E,4E-1,5-bis(2,4-dihydroxyphenyl)penta-2,4-dien-1-one]	7.48
O=C(/C=C/C=C/C=C/c1ccc(O)cc1O)c1ccc(O)cc1O [Compound 2, 2E,4E,6E-1,7-bis(2,4-dihydroxyphenyl)hepta-2,4,6-trien-1-one]	6.96
COC1=CC(=O)C=C(OC)C1=O [Compound 3, 2,6-dimethoxybenzoquinone]	< 4.00

Biological target: tyrosinase
Experiment: not given
Conditions: read-out: tyrosinase inhibitory constant (Ki); ref Choi et al. [25]; cited from earlier work

SMILES	pKi
O=c1[nH]cnc2nc[nH]c12 [Hypoxanthine]	< 3.00
